{"source": "paper PMC4923258", "about": "“A Recombinant Human Pluripotent Stem Cell Line Stably Expressing Halide-Sensitive YFP-I152L for GABAAR and GlyR-Targeted High-Throughput Drug Screening and Toxicity Testing” (Frontiers in Molecular Neuroscience, 2016)", "key": {"[1]": {"test_system": "GlyR", "format": "cell-based, human", "description": "(§1) To this end, human pluripotent NT2-YFP-I152L cells were differentiated into neuronal NT2-N-YFP-I152L cells as described in the Methods section and were seeded at a density of 2 × 10^4 cells in each well of a 96-well plate. 48 h later, the culture medium was completely removed and was replaced by 50 μl NaCl control solution.\n(§2) Approximately 1 h prior to commencement of experiments culture media in 96-well plates was removed manually and was replaced by 50 μl standard control solution, which contained (in mM) NaCl 140, KCl 5, CaCl2 2, MgCl2 1, HEPES 10, and glucose 10 (pH 7.4, NaOH) upon washing the cells once in 50 μl standard control solution. […] All drugs were diluted from stocks at the day of the experiment and experiments were conducted at room temperature.\n(§3) The experimental protocol involved imaging each well for 30 s at 2 Hz acquisition rate capturing the initial fluorescence intensity in the control situation as well as the test situation upon receptor activation, respectively. Liquid handling was performed manually.\n(§4) Cells depicted in fluorescence micrographs were selected manually based on strongest quench for low and intermediate concentrations and based on cell morphology in experiments where high drug concentrations were applied. Registered images of fluorescent cells were segmented and quantitatively analyzed using NIS-Elements software (Nikon, Japan). The fluorescence signal of identified cells was measured in images acquired before and after the addition of agonist solution as the mean of all pixel values within the area of a cell. “% fluorescence quench” in chloride imaging experiments is defined as %fluorescence quench=(Finit−Ffinal)∗100/Finit where Finit and Ffinal are the initial and final values of fluorescence, respectively.\n(§5) Individual concentration responses were constructed by pooling results from ten cells in one well exposed to agonist solution. Concentration-response relationships were fitted with the following equation: F= Fmax+Fmin− Fmax/1+([Agonist]/EC50)^nH where F is the fluorescence corresponding to a particular agonist concentration, [Agonist]; Fmin and Fmax are the minimal and maximal fluorescence values, respectively; EC50 is the concentration that elicits half-maximal activation; and nH is the Hill coefficient. Curve fits were performed using a least squares fitting routine (Origin 7G, OriginLab Corporation). All averaged results are expressed as mean ± SD."}, "[2]": {"test_system": "GABAAR", "format": "cell-based, human", "conditions": "1 μM GABA", "description": "as §1, §2, §3, §4, §5"}, "[3]": {"test_system": "GABAAR", "format": "cell-based, human", "conditions": "GABA concentration-response, mean ± SD, n = 10", "description": "(§6) To assess whether the generated recombinant stem cell line is suitable to chloride imaging and functional profiling of GABAARs and GlyRs, NT2-YFP-I152L cells were differentiated into neuronal NT2-N- YFP-I152L cells as described in the Methods section and were seeded at defined density of 2 × 10^4 cells in each well of a 96-well plate. Two days later and approximately 1 h prior to fluorescence imaging, the culture medium was completely removed and was replaced by 50 μl NaCl control solution. The standard NaCl control solution contained (in mM): NaCl 140, KCl 5, CaCl2 2, MgCl2 1, HEPES 10, glucose 10, pH 7.4 using NaOH. The 96-well plate was placed onto the motorized stage of a high-content imaging system and cells were imaged in control solution to record cellular YFP fluorescence in unquenched state. Because YFP-I152L is almost insensitive to chloride, its fluorescence intensity is highest in NaCl solution allowing for optimal focussing into the optical layer of cells. […] Fluorescence quench was calculated at single cell level by quantitative analysis as described in the Methods section. […]\n(§7) The experimental protocol involved imaging each well for 30 s at 2 Hz acquisition rate capturing the initial fluorescence intensity in the control situation as well as the test situation upon receptor activation, respectively. […]"}, "[4]": {"test_system": "GABAAR", "assay": "Proportion of cells with at least 20% fluorescence quench at saturating GABA", "format": "cell-based, human", "conditions": "for Percentage of non-treated NT2-YFP-I152L stem cells responding with at least 20% fluorescence quench: 1 mM saturating GABA; for GABAAR-positive cells as percentage of the overall population / Percentage of cells per image with fluorescence quench of at least 20%: saturating GABA", "source_text": "(§8) The applicability of the established recombinant in vitro model for high-throughput GABAAR and GlyR-targeted screening in the context of lead identification and NT/DNT testing strongly depends on the proportion of GABAAR and GlyR positive NT2-N cells in the whole cell population. A very small percentage of GABAAR and GlyR expressing NT2-N cells requires a large number of individual experiments including technical and biological replicates to be conducted in order to obtain statistically sound results, potentially compromising the usability of the established cell line for the envisioned application. […] The threshold of 20% fluorescence quench was chosen because, from our experience, any measured cellular fluorescence change within a range of −20 to 20% reflects biological noise typical to the employed assay. As a starting point toward analysing the proportion of GABAAR and GlyR-positive cells we segmented the images of a total of 24 individual experiments from two different differentiation batches (GABAAR, batch #1: n = 7, batch #2: n = 6; GlyR, batch #1: n = 6, batch #2: n = 5) using a modified version of DetecTIFF^© software (Gilbert et al., [2009c]) employing two individual sets of parameters for the identification of small neuronal NT2-N-YFP-I152L and larger non-neuronal NT2-YFP-I152L cells. […] Exemplary segmentation masks created from the image shown in Figure 6A for quantitative analysis of fluorescence intensity and calculation of “% fluorescence quench” in small neuronal NT2-N-YFP-I152L cells and large non-neuronal cells are depicted in Figures 6B,C.\n(§9) Images of fluorescent cells were segmented and quantitatively analyzed using a modified version of DetecTIFF® software (Gilbert et al., [2009c]). In brief, images were segmented using an iterative size and intensity-based thresholding algorithm and the fluorescence signal of identified cells was calculated as the mean of all pixel values within the area of a cell."}, "[5]": {"test_system": "GlyR", "conditions": "mean ± SD, n = 10; for nH (Hill coefficient): glycine concentration-response", "description": "as §6, §7\nCells depicted in fluorescence micrographs were selected manually based on strongest quench for low and intermediate concentrations and based on cell morphology in experiments where high drug concentrations were applied. Registered images of fluorescent cells were segmented and quantitatively analyzed using NIS-Elements software (Nikon, Japan). The fluorescence signal of identified cells was measured in images acquired before and after the addition of agonist solution as the mean of all pixel values within the area of a cell. “% fluorescence quench” in chloride imaging experiments is defined as %fluorescence quench=(Finit−Ffinal)∗100/Finit where Finit and Ffinal are the initial and final values of fluorescence, respectively. […]"}, "[6]": {"test_system": "GlyR", "conditions": "for Percentage of non-treated NT2-YFP-I152L stem cells responding with at least 20% fluorescence quench: 1 mM saturating glycine", "source_text": "as §8, §9"}, "[7]": {"test_system": "GABAARs", "parameters": "method as in Kumamoto and Murata, 1995", "conditions": "ref Kumamoto and Murata, 1995; cited from earlier work"}, "[8]": {"test_system": "GlyRs", "parameters": "method as in Harvey et al., 1999", "conditions": "ref Harvey et al., 1999, cited from earlier work"}, "[9]": {"conditions": "read-out: IC50 (Glycine), 3 μM glycine, n = 10"}, "[10]": {"conditions": "3 μM glycine, n = 10, read-out: IC50 (Glycine)"}}, "note": "“And” between values parts separate entries of the source, which are not always exact repeats. Equal values may be shown once. Read-outs that look alike come from different tables or passages of the source."}
{"compound": "CN1CCc2cc3c(cc2[C@H]1[C@@H]1OC(=O)c2c1ccc1c2OCO1)OCO3", "note": "[Bicuculline, bicuculline]", "values": [{"measurement": "Sensitivity of glycine-induced I- influx compared to GABA-dependent anion influx (lower)", "setting": "[1]; ratio of IC50 vs glycine and IC50 vs GABA", "result": "about 10 fold"}, {"measurement": "IC50", "setting": "[1]; [9]", "result": 13.4, "unit": "µM"}, {"measurement": "IC50", "setting": "[2]; read-out: IC50 (GABA), n = 10", "result": 1.1, "unit": "µM"}]}
{"compound": "N#Cc1nn(-c2c(Cl)cc(C(F)(F)F)cc2Cl)c(N)c1[S+]([O-])C(F)(F)F", "note": "(stereo not drawn) [Fipronil, fipronil]", "values": [{"measurement": "IC50", "setting": "[1]; [10]", "result": 1.5, "unit": "µM"}, {"measurement": "IC50", "setting": "[2]; read-out: IC50 (GABA), n = 10", "result": 10.8, "unit": "µM"}]}
{"compound": "NCCCC(=O)O", "note": "[GABA, γ-aminobutyric acid]", "values": [{"measurement": "nH (Hill coefficient)", "setting": "[3]", "result": "1.8 ± 0.4 and 1.8"}, {"measurement": "Percentage of non-treated NT2-YFP-I152L stem cells responding with at least 20% fluorescence quench", "setting": "[4]; replicate #1", "result": 0.62, "unit": "%"}, {"measurement": "Percentage of non-treated NT2-YFP-I152L stem cells responding with at least 20% fluorescence quench", "setting": "[4]; replicate #2", "result": 0.37, "unit": "%"}, {"measurement": "GABAAR-positive cells as percentage of the overall population", "setting": "[4]; batch #1", "result": "17 ± 8", "unit": "%"}, {"measurement": "GABAAR-positive cells as percentage of the overall population", "setting": "[4]; batch #2", "result": "21 ± 9", "unit": "%"}, {"measurement": "Percentage of cells per image with fluorescence quench of at least 20%", "setting": "[4]; large non-neuronal cells, batch #1, n = 7", "result": "3 ± 1", "unit": "%"}, {"measurement": "Percentage of cells per image with fluorescence quench of at least 20%", "setting": "[4]; large non-neuronal cells, batch #2, n = 6", "result": "6 ± 2", "unit": "%"}, {"measurement": "Percentage of cells per image with fluorescence quench of at least 20%", "setting": "[4]; small cells (NT2-N-YFP-I152L), batch #1, n = 7", "result": "28 ± 13", "unit": "%"}, {"measurement": "Percentage of cells per image with fluorescence quench of at least 20%", "setting": "[4]; small cells (NT2-N-YFP-I152L), batch #2, n = 6", "result": "32 ± 12", "unit": "%"}]}
{"compound": "NCC(=O)O", "note": "[Glycine, glycine]", "values": [{"measurement": "nH (Hill coefficient)", "setting": "[5]", "result": 1.5}, {"measurement": "nH (Hill coefficient)", "setting": "[5]; listed as glycine", "result": "1.5 ± 0.2"}, {"measurement": "EC50", "setting": "[5]; read-out: EC50 (half-maximal activation concentration), glycine 0.1-1000 μM in NaI solution, quench 30 s after activation", "result": 4.3, "unit": "µM"}, {"measurement": "Percentage of cells per image with fluorescence quench of at least 20%", "setting": "[6]", "result": "36 ± 14% and 35 ± 7%"}, {"measurement": "Percentage of non-treated NT2-YFP-I152L stem cells responding with at least 20% fluorescence quench", "setting": "[6]; replicate #1", "result": 0.68, "unit": "%"}, {"measurement": "Percentage of non-treated NT2-YFP-I152L stem cells responding with at least 20% fluorescence quench", "setting": "[6]; replicate #2", "result": 0.92, "unit": "%"}, {"measurement": "GlyR-positive cells as percentage of the overall population", "setting": "[6]; saturating glycine, batch #1", "result": "20 ± 9", "unit": "%"}, {"measurement": "GlyR-positive cells as percentage of the overall population", "setting": "[6]; saturating glycine, batch #2", "result": "19 ± 4", "unit": "%"}, {"measurement": "Percentage of cells per image with fluorescence quench of at least 20%", "setting": "[6]; saturating glycine, large non-neuronal cells, batch #1, n = 6", "result": "2 ± 1", "unit": "%"}, {"measurement": "Percentage of cells per image with fluorescence quench of at least 20%", "setting": "[6]; saturating glycine, large non-neuronal cells, batch #2, n = 5", "result": "4 ± 2", "unit": "%"}]}
{"compound": "Cl[C@H]1[C@H](Cl)[C@@H](Cl)[C@@H](Cl)[C@H](Cl)[C@H]1Cl", "note": "[Lindane, lindane]", "values": [{"measurement": "IC50", "setting": "[1]; [10]", "result": 0.0781, "unit": "µM"}, {"measurement": "Inhibition of GABA-induced anion influx (in words)", "setting": "[2]", "result": "no dose-dependent inhibitory activity"}]}
{"compound": "O=C1C[C@@H]2OCC=C3CN4CC[C@]56c7ccccc7N1[C@H]5[C@H]2[C@H]3C[C@H]46", "note": "[Strychnine, strychnine]", "values": [{"measurement": "IC50", "setting": "[1]; [9]", "result": 0.0172, "unit": "µM"}, {"measurement": "Inhibition of GABA-induced anion influx (in words)", "setting": "[2]", "result": "specifically inhibited glycine but not GABA-induced anion-influx"}]}
{"compound": "[Cl-].[Cl-].[Zn+2]", "note": "[Zinc, zinc chloride]", "values": [{"measurement": "Concentrations at which inhibition of glycine-induced anion influx was observed", "setting": "[1]; 3 μM glycine", "result": "> 100", "unit": "µM"}, {"measurement": "IC50", "setting": "[1]; 3 μM glycine, zinc 10 nM-1 mM, could not be calculated, presumed, read-out: IC50 (glycine-induced anion influx)", "result": "> 1000", "unit": "µM"}, {"measurement": "Increase of glycine-induced fluorescence quench", "setting": "[1]; in presence of 1 and 10 μM zinc, not significant", "result": "about 10%"}, {"measurement": "Concentrations at which inhibition of GABA-induced anion influx was observed", "setting": "[2]", "result": "> 100", "unit": "µM"}, {"measurement": "IC50", "setting": "[2]; zinc 10 nM-1 mM, could not be calculated, presumed, read-out: IC50 (GABA-induced anion influx)", "result": "> 1000", "unit": "µM"}, {"measurement": "Concentrations inhibiting GABAARs", "setting": "[7]", "result": "> 10", "unit": "µM"}, {"measurement": "Concentrations inhibiting glycine-activated currents", "setting": "[8]; high concentrations", "result": "> 100", "unit": "µM"}, {"measurement": "Concentrations potentiating glycine-activated currents", "setting": "[8]; low concentrations", "result": "< 10", "unit": "µM"}]}
{"compound": "picrotoxin", "values": [{"measurement": "IC50", "setting": "[1]; [10]", "result": 1.1, "unit": "µM"}, {"measurement": "Sensitivity of GlyR compared to GABAARs (higher)", "setting": "[1]; ratio of IC50 vs GABA and IC50 vs glycine", "result": "approximately 5 fold"}, {"measurement": "IC50", "setting": "[2]; read-out: IC50 (GABA), n = 10", "result": 5.8, "unit": "µM"}]}
